In US20050209345A1, “Lymphatic drug delivery system” (priority 2001, published 2005):
Where two headings read alike, the source gives them in different places.

Columns and labels:
[1] = dog, in vivo, po
Procedure: (§1) All surgical and experimental procedures were performed in accordance with the guidelines and approval of the local Institutional Animal Experimentation Ethics Committee. Studies were conducted in male greyhound dogs (28-35 kg), and their health status was verified by a veterinarian prior to the study. Prior to surgery, each dog was fed a small lipid meal to facilitate identification of the thoracic duct. […] Each dog received intravenous infusion of Lactated Ringer's solution (300 mL/h) during surgery, and a post-operative injection of antibiotic (cephazolin, 20 mg/kg) and analgesic (carprofen, 4 mg/kg).
(§2) The ventral abdomen was firstly clipped and prepared for aseptic surgery. A 5 cm long ventral midline laparotomy was performed to allow a loop of jejunum to be exteriorised. A 133 mm 16 gauge cannula was then inserted into a jejunal vein to the level of the portal vein. The cannula was stabilised in both the portal and jejunal veins with a ligature of 3/0 silk to the jejunal vein and a minimal volume extension tube, filled with heparinised saline, was then attached and externalised through a separate stab incision in the left flank and stabilised with sutures. The laparotomy wound was closed in anatomical layers with 3/0 polydioxinone sutures. The position of the cannula in the portal vein was confirmed by a portal venogram following a 10 mL injection of a contrast dye (Iohexol), and cannula patency was maintained by small volume flushing with heparinised saline (1 U/mL).
(§3) The left ventral neck area and cranial thorax was clipped and prepared for aseptic surgery. A curved incision was made over the left external jugular vein and the vein was then dissected from the surrounding tissues to the axillary vein. At the junction of the internal jugular and brachiocephalic veins, the thoracic duct ampulla was identified by its whitish appearance This was then ligated at the point of entrance into the brachiocephalic vein and all tributaries converging to the thoracic duct were ligated to ensure the return of lymph through the main lymphatic canal. […]

[2] = conscious rats, cited from earlier work
[3] = in vivo; cited from earlier work
[4] = rats, soybean emulsion, 24 h post dosing; cited from earlier work
[5] = rats, oral, cited from earlier work
[6] = in soybean oil; cited from earlier work
[7] = rats; cited from earlier work
[8] = Thoracic lymph duct and portal vein cannulated greyhound dog study: lymphatic transport of halofantrine and triglyceride, systemic availability; conditions: fed dogs, IV 2 mg/kg, over 12 h, mean +/- sd, n = 3
Procedure: as §1, §2, §3

CCCCN(CCCC)CCC(O)c1cc2c(Cl)cc(Cl)cc2c2cc(C(F)(F)F)ccc12 (centres unmarked) [Hf base]
Cum Hf transport in lymph (% dose) [1]: 1.3 +/− 0.7 % dose
Transport into syst circulation (% dose) [1]: 30.2 +/− 18.7 % dose

CCCCCCCCCCC(C)(C)C(=O)Nc1c(OC)cc(OC)cc1OC [Cl-976]
total amount transported in lymph as percent of dose, lipid-based emulsion compared with suspension ([2]; over 14 h): 7 times
absolute amount of drug transported lymphatically [2]: < 1%

CCCCCCCCCCCCCCCC(=O)OC/C=C(C)/C=C/C=C(C)/C=C/C1=C(C)CCCC1(C)C [retinyl palmitate]
lymphatic transport, aqueous polysorbate 80 micellar solution compared with lipid solution [3]: two-fold increase

Cc1ccc2oc(N[C@@H](CC3CCCCC3)c3ccccn3)nc2c1 [ontazolast]
total amount of lymphatically transported ontazolast, increase versus aqueous based suspension [4]: ~50 fold

CC(C)CCC[C@@H](C)[C@H]1CC[C@H]2[C@@H]3[C@@H](C)C[C@H]4N(C)C(=O)CC[C@]4(C)[C@H]3CC[C@]12C [MK-386]
rank order of total amount transported into the mesenteric lymph by formulation ([5]; 6 h post-dosing): aqueous suspension>mixed lipid/surfactant system>soybean oil
levels of radioactivity in the lymph compared with the portal blood ([5]; all three formulations): up to 80 fold
lipid solubility [6]: > 80 mg/mL

COC1(O[C@H]2CC[C@H]3[C@@H]4CC[C@H]5C[C@@H]6S[C@@H]6C[C@]5(C)[C@H]4CC[C@]23C)CCCC1 [mepitiostane]
extent of lymphatic transport, polysorbate 80 micellar solution versus triglyceride lipid vehicle [7]: no significant differences

CCCCN(CCCC)CCC(O)c1cc2c(Cl)cc(Cl)cc2c2cc(C(F)(F)F)ccc12 (centres unmarked) [Hf, halofantrine]
Cum Hf transport in lymph (% dose) [8]: 1.5 +/− 0.2 % dose
